This passage reports inhibition, GI50 and IC50 results from patent US9580390B2, “Indazole compounds as kinase inhibitors and method of treating cancer with same” (University Health Network, priority 2011, dated 2017).

Like-named read-outs stand apart in the source and are kept apart here.

The target of one assay is T1, MELK (Homo sapiens, UniProt Q14680).
T1 construct: purchased Millipore Corporation
The assay is described as follows: Panel of 270 human kinases (Millipore). It counts as biochemical. Here is the method: (§1) The inhibitory activity of selected compounds of the invention (A335, A405, A410, A261, A300 and A363) was evaluated against a panel of 270 different human kinase enzymes by Millipore Corporation. The % Inhibition was determined by the formula: % Inhibition=100×(1−(experimental value−background value)/(high activity control−background value)).

The next assay addresses T2, MAPK2 (Homo sapiens, UniProt P28482).
T2 construct: purchased Millipore Corporation
The assay is described as follows: Panel of 270 human kinases (Millipore). It counts as biochemical. Here is the method:
as §1

A further assay concerns the target T3, Aurora-B (Homo sapiens, UniProt Q96GD4).
T3 construct: purchased Millipore Corporation
Description: Panel of 270 human kinases (Millipore). The format is biochemical. The protocol:
as §1

The target in a further assay is T4, Met(Y1248C) (Homo sapiens, UniProt P08581, Y1230C).
T4 construct: purchased Millipore Corporation
The assay is described as follows: Panel of 270 human kinases (Millipore). It counts as biochemical. Here is the method:
as §1

The next assay deals with T5, MUSK (Homo sapiens, UniProt O15146).
T5 construct: purchased Millipore Corporation
T5 sequence (O15146 24-869): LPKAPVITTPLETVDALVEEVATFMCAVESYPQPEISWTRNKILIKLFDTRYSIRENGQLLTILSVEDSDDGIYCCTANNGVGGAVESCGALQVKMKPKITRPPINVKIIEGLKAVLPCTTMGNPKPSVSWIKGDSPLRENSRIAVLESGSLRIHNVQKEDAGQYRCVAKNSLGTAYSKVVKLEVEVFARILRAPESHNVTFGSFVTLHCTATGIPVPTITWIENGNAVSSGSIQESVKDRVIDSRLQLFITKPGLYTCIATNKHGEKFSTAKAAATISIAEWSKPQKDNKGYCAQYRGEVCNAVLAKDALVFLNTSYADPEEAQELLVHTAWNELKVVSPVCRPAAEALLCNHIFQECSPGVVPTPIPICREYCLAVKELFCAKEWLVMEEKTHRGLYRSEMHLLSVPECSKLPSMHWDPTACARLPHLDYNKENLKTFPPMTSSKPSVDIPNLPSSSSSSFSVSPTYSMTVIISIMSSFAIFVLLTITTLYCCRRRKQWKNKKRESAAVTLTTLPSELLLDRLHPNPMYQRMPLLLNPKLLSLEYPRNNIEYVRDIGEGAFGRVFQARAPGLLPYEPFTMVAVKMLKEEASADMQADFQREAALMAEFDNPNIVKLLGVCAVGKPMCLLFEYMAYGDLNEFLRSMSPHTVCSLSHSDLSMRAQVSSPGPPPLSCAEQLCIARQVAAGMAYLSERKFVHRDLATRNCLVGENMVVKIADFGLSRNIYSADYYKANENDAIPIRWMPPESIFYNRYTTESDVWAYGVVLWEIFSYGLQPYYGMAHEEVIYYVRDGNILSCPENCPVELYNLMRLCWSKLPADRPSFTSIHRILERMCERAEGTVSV
Description: Panel of 270 human kinases (Millipore). The format is biochemical. Here is the method:
as §1

The target in another assay is T6, cKit (V560G) (Homo sapiens, UniProt P10721, V560G).
T6 construct: purchased Millipore Corporation
T6 sequence (P10721 26-976 V560G): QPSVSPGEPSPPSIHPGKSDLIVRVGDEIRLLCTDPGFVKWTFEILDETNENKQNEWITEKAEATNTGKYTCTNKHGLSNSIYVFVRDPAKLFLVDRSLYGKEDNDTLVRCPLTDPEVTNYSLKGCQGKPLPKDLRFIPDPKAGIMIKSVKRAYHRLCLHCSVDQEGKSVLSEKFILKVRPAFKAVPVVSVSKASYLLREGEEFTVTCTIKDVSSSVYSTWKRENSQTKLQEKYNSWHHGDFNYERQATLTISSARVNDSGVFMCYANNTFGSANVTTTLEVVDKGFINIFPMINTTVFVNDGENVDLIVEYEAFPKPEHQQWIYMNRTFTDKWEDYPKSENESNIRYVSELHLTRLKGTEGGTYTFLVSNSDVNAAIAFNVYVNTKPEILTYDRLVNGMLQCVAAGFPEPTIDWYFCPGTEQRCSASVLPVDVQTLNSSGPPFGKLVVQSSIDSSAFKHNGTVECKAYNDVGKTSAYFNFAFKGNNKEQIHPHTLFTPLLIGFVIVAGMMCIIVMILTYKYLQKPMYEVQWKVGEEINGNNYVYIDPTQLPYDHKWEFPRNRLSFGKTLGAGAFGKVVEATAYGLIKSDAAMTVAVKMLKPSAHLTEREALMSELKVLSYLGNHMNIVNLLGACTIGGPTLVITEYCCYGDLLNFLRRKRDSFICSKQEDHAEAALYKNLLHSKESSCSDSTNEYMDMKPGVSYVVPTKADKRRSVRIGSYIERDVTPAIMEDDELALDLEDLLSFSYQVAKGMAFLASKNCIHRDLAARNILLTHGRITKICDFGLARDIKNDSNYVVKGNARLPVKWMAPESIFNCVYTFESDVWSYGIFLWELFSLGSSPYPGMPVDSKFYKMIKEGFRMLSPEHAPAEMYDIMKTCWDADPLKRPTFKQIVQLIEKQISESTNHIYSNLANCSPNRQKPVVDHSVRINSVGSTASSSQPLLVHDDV
Description: Panel of 270 human kinases (Millipore). The format is biochemical. Here is the method:
as §1

The next assay deals with T7, ALK (Homo sapiens, UniProt Q9UM73).
T7 construct: purchased Millipore Corporation
T7 sequence (Q9UM73 19-1620): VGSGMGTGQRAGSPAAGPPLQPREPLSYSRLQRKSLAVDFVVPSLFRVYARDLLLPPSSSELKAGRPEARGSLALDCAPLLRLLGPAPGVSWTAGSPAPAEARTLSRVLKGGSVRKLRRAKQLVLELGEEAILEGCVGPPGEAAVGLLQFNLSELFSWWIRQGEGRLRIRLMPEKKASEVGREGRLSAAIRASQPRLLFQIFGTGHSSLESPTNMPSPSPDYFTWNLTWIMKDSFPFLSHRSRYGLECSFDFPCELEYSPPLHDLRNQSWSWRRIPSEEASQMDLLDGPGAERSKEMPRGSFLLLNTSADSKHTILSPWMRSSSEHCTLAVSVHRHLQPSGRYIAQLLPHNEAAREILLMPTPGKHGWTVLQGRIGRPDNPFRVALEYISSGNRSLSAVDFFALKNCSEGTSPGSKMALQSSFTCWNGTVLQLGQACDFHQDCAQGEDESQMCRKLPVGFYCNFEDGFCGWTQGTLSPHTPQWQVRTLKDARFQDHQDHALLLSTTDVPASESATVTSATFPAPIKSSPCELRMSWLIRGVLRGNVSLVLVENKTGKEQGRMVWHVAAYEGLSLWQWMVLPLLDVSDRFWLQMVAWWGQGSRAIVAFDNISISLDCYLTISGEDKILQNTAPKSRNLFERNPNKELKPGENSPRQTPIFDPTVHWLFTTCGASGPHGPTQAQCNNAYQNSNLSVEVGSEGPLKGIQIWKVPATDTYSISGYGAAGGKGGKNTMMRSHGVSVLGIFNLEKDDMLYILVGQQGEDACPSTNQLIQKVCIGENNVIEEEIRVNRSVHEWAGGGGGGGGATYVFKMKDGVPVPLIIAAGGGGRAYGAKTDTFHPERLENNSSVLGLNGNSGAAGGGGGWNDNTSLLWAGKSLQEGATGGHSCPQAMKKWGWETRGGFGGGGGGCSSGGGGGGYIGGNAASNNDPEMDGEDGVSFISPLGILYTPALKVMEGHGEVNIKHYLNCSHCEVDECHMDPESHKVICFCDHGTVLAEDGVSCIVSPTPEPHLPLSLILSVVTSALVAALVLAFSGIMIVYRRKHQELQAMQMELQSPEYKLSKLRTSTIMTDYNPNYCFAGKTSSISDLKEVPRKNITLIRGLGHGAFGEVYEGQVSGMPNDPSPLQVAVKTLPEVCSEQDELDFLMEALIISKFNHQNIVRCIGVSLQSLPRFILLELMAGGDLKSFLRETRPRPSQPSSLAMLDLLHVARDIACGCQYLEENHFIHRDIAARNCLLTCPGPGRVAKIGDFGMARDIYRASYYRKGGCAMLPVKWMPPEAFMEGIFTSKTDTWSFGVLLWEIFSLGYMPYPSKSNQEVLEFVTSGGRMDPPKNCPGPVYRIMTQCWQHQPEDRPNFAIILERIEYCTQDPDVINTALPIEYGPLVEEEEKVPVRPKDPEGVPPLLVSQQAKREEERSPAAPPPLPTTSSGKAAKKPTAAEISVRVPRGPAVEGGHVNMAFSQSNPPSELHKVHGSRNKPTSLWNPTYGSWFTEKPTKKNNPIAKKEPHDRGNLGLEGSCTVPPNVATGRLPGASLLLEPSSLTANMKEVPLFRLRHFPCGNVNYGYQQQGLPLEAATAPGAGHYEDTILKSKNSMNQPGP
Description: Panel of 270 human kinases (Millipore). It counts as biochemical. Here is the method: as §1

For the next assay, the target named is T8, JNK3 (Homo sapiens, UniProt P53779).
T8 construct: purchased Millipore Corporation
T8 sequence (P53779 whole entry): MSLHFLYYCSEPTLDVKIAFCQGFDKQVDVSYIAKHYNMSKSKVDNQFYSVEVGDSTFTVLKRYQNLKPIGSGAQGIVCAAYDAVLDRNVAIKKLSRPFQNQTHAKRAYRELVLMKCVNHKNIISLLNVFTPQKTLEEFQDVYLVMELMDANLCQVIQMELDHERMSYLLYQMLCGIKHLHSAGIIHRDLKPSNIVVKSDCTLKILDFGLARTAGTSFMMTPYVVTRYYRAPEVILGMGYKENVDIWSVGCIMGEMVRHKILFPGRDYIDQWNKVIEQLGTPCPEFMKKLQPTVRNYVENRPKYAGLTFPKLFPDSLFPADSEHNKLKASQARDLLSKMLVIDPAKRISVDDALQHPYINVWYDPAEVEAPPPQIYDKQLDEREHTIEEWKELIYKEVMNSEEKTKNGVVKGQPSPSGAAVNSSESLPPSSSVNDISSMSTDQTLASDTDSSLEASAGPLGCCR
The assay is described as follows: Panel of 270 human kinases (Millipore). The format is biochemical. Here is the method: as §1

Assay [1] concerns ovarian cancer cells (PA-1). The assay is described as follows: Cancer cell line growth inhibition (SRB assay). It counts as cell-based. As to conditions: Homo sapiens, PA-1; read-out: Cancer Cell Line GI50 Range PA-1. A general note: Sulforhodamine B stains cellular protein and so reports cell mass.
Description: Breast cancer cells (MDA-MB-231), colon cancer cells (HCT116) and ovarian cancer cells (PA-1) were seeded (1000 to 4000 in 80 μl per well depending on the cell growth rate) into 96 well plates 24 hours before compound overlay. Compounds were prepared as 10 mM stock solutions in 100% DMSO which were diluted with DMEM (Dulbecco's Modified Eagle's Medium) cell growth Medium (Invitrogen, Burlington, ON, Canada) containing 10% FBS (Fetal Bovine Serum) to concentrations ranging from 50 nM to 250 μM. Aliquots (20 μl) from each concentration were overlaid to 80 μl of the pre-seeded cells in the 96 well plates to make final concentrations of 10 nM to 50 μM. The cells were cultured for 5 days before the Sulforhodamine B assay (SRB) was performed to determine the compound's cell growth inhibition activity.
Sulforhodamine B (purchased from Sigma, Oakville, ON, Canada) is a water-soluble dye that binds to the basic amino acids of the cellular proteins. Thus, colorimetric measurement of the bound dye provides an estimate of the total protein mass that is related to the cell number. the cells are fixed in situ by gently aspirating off the culture media and adding 50 μl ice cold 10% Trichloroacetic Acid (TCA) per well and incubate at 4° C. for 30-60 min. The plates are washed with H2O five times and allowed to air dry for 5 min. Addition of 50 μl 0.4% (w/v) SRB solution in 1% (v/v) acetic acid to each well and incubation for 30 min at RT completes the staining reaction. Following staining, plates are washed four times with 1% acetic acid to remove unbound dye and then allowed to air dry for 5 min. The stain is solubilized with 100 μl of 10 mM Tris pH 10.5 per well. Absorbance is read at 570 nm.
The percentage (%) of relative growth inhibition was calculated by comparing to DMSO treated only cells (100%). GI50's were determined for compounds with cytotoxic activity. The GI50 was calculated using GraphPad PRISM software (GraphPad Software, Inc., San Diego, Calif., USA).
In the next assay the test system is TICs (Colon 12). Description: Colon tumor-initiating cell growth inhibition (Alamar Blue). It counts as cell-based. The conditions noted are these: 216 h; Colon 12 TICs, 9 days; read-out: Tumor Initiating Cell GI50 Range Colon 12.
A further assay deals with TICs (Ovarian 2393A). Description: Ovarian tumor-initiating cell growth inhibition (Alamar Blue). The conditions noted are these: 144 h; Ovarian 2393A TICs, 6 days; read-out: Tumor Initiating Cell GI50 Range Ovarain 2393A. It counts as cell-based. A general note: Alamar Blue is a resazurin reagent that responds to reducing activity.
The test system of another assay is Breast cancer cells. Description: Cancer cell line growth inhibition (SRB assay). The format is cell-based. As to conditions: Homo sapiens; MDA-MB-468; read-out: Cancer Cell Line GI50 Range MDA-MB-468.
The target of the next assay is T9, human TTK (Homo sapiens, UniProt P33981).
T9 construct: amino terminal GST fusion of full length human TTK; purchased Invitrogen
T9 sequence (P33981 1-857): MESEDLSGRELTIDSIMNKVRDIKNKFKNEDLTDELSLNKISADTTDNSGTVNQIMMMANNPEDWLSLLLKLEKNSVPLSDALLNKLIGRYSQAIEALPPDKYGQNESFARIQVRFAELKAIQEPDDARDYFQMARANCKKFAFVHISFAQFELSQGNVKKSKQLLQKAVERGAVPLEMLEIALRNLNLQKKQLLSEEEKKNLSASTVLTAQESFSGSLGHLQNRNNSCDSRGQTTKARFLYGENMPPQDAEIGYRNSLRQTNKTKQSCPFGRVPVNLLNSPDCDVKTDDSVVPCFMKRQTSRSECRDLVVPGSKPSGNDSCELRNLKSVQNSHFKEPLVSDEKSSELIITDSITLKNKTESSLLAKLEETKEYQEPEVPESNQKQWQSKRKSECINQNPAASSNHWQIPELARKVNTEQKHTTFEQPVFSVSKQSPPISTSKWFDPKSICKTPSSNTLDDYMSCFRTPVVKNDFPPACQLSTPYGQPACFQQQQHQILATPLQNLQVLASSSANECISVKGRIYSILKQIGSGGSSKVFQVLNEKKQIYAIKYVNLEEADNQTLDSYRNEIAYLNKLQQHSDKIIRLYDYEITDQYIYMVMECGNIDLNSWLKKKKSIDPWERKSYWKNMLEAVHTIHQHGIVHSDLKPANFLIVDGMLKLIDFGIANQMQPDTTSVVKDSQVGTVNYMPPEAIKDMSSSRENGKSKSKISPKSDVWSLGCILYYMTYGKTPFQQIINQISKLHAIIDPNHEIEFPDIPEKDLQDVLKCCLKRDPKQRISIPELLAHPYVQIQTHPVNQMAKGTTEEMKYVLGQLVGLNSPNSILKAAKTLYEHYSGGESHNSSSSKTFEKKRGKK
The assay is described as follows: TTK inhibition assay (indirect ELISA). It counts as biochemical. For orientation: ELISA stands for enzyme-linked immunosorbent assay.

The subject of assay [2] is colon cancer cells (HCT116). Description: Cancer cell line growth inhibition (SRB assay). The format is cell-based. The conditions noted are these: Homo sapiens, HCT-116; read-out: Cancer Cell Line GI50 Range HCT116.
Another assay has as its target T10, human PLK4 (Homo sapiens, UniProt O00444).
T10 construct: amino terminal GST fusion of residues 1-391 of human PLK4; made in house; host or cells: E. coli
T10 sequence (O00444 1-391): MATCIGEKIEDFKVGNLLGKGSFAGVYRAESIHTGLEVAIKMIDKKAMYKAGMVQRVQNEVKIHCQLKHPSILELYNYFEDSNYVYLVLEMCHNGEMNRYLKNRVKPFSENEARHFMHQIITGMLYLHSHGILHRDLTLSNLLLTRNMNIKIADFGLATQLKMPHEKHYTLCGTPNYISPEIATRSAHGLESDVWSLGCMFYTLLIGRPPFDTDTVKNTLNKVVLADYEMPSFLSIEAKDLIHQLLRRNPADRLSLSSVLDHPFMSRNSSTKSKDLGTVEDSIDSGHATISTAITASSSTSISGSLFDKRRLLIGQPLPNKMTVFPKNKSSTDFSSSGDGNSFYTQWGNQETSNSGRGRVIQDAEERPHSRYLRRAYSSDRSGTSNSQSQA
The assay is described as follows: PLK4 inhibition assay (indirect ELISA). It counts as biochemical. As to conditions: 15 μM ATP. The method, boiled down:
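Dephosphorylated GST-PLK4 (residues 1-391, E. coli; 4 nM) was preincubated 15 min with compound, then reacted 30 min with 15 μM ATP in HEPES pH 7.4, MgCl2, Brij 35 on MBP-coated plates. Phospho-MBP was detected by antibody/HRP ELISA at 450 nm; IC50 from 10-point titration by 4-parameter logistic fit, or single 10 μM % inhibition.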

T3 sequence (Q96GD4 whole entry): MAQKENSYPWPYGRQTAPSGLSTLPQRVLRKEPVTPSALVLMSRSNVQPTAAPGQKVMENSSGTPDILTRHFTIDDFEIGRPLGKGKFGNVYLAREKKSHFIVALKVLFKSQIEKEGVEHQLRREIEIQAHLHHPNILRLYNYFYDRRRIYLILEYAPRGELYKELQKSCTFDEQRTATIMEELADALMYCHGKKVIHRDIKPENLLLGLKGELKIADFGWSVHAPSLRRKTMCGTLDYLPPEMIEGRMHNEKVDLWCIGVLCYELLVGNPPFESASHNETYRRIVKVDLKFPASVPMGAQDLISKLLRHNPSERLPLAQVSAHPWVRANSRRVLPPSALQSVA
T1 sequence (Q14680 whole entry): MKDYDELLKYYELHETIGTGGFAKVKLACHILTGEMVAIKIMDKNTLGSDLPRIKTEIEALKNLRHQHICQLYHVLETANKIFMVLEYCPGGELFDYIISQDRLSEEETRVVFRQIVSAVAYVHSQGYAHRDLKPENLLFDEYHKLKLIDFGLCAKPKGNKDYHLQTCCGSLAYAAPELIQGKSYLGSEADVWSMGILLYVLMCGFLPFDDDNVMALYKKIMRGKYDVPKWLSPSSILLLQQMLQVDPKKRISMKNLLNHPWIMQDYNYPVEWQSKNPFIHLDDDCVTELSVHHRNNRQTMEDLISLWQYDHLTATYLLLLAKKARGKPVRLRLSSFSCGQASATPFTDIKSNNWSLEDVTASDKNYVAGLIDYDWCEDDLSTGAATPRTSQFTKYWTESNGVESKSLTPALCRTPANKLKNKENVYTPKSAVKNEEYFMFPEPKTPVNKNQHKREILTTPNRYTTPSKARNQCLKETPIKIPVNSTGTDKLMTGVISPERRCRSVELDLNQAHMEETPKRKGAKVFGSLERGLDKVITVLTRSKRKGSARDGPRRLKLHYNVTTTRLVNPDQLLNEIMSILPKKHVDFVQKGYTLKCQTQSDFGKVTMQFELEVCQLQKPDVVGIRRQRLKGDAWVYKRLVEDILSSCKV
T2 sequence (P28482 whole entry): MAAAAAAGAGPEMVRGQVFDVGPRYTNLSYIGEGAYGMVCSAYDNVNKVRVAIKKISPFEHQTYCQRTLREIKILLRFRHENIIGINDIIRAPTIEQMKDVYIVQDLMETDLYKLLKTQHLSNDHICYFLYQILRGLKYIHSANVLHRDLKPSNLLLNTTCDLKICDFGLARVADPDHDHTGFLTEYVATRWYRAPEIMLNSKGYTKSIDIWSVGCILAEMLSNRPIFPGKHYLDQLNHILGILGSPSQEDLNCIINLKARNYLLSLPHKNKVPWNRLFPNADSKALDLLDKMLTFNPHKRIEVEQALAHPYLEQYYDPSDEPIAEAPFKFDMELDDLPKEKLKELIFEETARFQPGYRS

In the case of `CC1=CC2(CCN(C)CC2)Oc2ccc(-c3n[nH]c4ccc(C(=O)N[C@H](c5ccccn5)C5CCCC5)cc34)cc21` [Example A261, (S)-N-(cyclopentyl(pyridin-2-yl)methyl)-3-(1′,4-dimethylspiro[chromene-2,4′-piperidin]-6-yl)-1H-indazole-5-carboxamide], the inhibition at 1 µM against MELK was 93%; at MAPK2, 8%; against Aurora-B it was 49%; against Met(Y1248C), 8%; on MUSK it was 86%; on cKit (V560G), 90%. The inhibition at 1 µM against ALK stood at 86%; against JNK3 it was 59%. For the same compound, the GI50 in assay [1] was less than 100 nM; with TICs (Colon 12), 100 to 500 nM; with TICs (Ovarian 2393A), less than 100 nM; in the assay with Breast cancer cells, less than 100 nM; in assay [2], less than 100 nM. Moreover, the IC50 at human TTK (read-out: TTK IC50 Range) is less than 100 nM.
Turning to `CC(C)[C@H](NC(=O)c1ccc2[nH]nc(-c3ccc(N4CCN(C5COC5)CC4)cc3)c2c1)c1ccccc1Cl` [Example A405, (S)-N-(1-(2-chlorophenyl)-2-methylpropyl)-3-(4-(4-(oxetan-3-yl)piperazin-1-yl)phenyl)-1H-indazole-5-carboxamide], the inhibition at 1 µM on MELK is 92%; against MAPK2, 11%; on Aurora-B, 94%; against Met(Y1248C), 44%; at MUSK it was 94%; at cKit (V560G) it was 65%. In addition, the inhibition at 1 µM at ALK worked out at 2%; at JNK3 it was 81%. Further, the 50% growth inhibitory concentration (GI50) (in assay [1]; in the assay on TICs (Colon 12); in the assay with TICs (Ovarian 2393A); with Breast cancer cells; in [2]) was less than 100 nM throughout. In addition, the 50% inhibitory concentration (IC50) on human TTK (read-out: TTK IC50 Range) was less than 100 nM.
For `O=C(N[C@@H](c1ccccn1)C1CC1)c1ccc2[nH]nc(-c3ccc(N4C5CCC4CC(O)C5)cc3)c2c1` (stereo partly drawn) [Example A363, N-((R)-cyclopropyl(pyridin-2-yl)methyl)-3-(4-((1R,3R,5S)-3-hydroxy-8-azabicyclo[3.2.1]octan-8-yl)phenyl)-1H-indazole-5-carboxamide], the inhibition at 1 µM at MELK is 80%; on MAPK2, 90%; against Aurora-B, 75%; against Met(Y1248C) it was 23%; against MUSK, 53%; against cKit (V560G) it was 48%. The inhibition at 1 µM against ALK was 6%; on JNK3, 90%. Besides, the 50% growth inhibitory concentration (GI50) (in [1]; in the assay with TICs (Colon 12); in the assay with TICs (Ovarian 2393A); in [2]) was less than 100 nM in each case. The half-inhibitory concentration (IC50) at human TTK is less than 100 nM.
With `O=C(N[C@H](c1ccccn1)C1CCCC1)c1ccc2[nH]nc(-c3ccc(N4CCN(C5COC5)CC4)cc3)c2c1` [Example A410, (S)-N-(cyclopentyl(pyridin-2-yl)methyl)-3-(4-(4-(oxetan-3-yl)piperazin-1-yl)phenyl)-1H-indazole-5-carboxamide], the inhibition at 1 µM against MELK was 95%; at MAPK2 it was -8%; against Aurora-B it was 92%; on Met(Y1248C) it was 88%; against MUSK, 96%; against cKit (V560G), 86%. The results for the inhibition at 1 µM against ALK and against JNK3 were -3% and 81%, respectively. Moreover, the concentration for 50% growth inhibition (GI50) (in assay [1]; in the assay with TICs (Colon 12); with TICs (Ovarian 2393A); in [2]) was less than 100 nM in each case. The IC50 at human TTK (read-out: TTK IC50 Range) is less than 100 nM.
Consider `CC(C)[C@@H](NC(=O)c1ccc2[nH]nc(-c3ccc(OC4CC5CCC(C4)N5C)cc3)c2c1)c1ccccc1Cl` (stereo partly drawn) [Example A288, N-((R)-1-(2-chlorophenyl)-2-methylpropyl)-3-(4-(((1R,3R,5S)-8-methyl-8-azabicyclo[3.2.1]octan-3-yl)oxy)phenyl)-1H-indazole-5-carboxamide], for which the GI50 was 100 to 500 nM in assay [1]; 100 to 500 nM with TICs (Colon 12); 100 to 500 nM in the assay with TICs (Ovarian 2393A); 100 to 500 nM with Breast cancer cells; less than 100 nM in assay [2]. Moreover, the half-maximal inhibitory concentration (IC50) on human TTK (read-out: TTK IC50 Range) was less than 100 nM; at human PLK4, less than 50 nM.

In general, inhibition refers to the change of the read-out against control, counted positive when it falls. For orientation: GI50 means the concentration that inhibits growth by half. The term IC50 denotes the concentration needed to halve the response being measured.
